The values below are quoted from earlier work in patent publication US20210401795A1, “Compressible Cannabinoid Pharmaceutical Composition” (Imbucanna, Inc., priority 2019, published 2021).

The conditions of data set [1]: pure CBD, twice-daily dosages, pediatric patients; ranging from total seizure freedom to the stated reductions.
Test in data set [2]: not given
The source holds these as a separate data set.

Turning to `C=C(C)[C@@H]1CCC(C)=C[C@H]1c1c(O)cc(CCCCC)cc1O` [CBD, cannabidiol], the solubility in water result is given as “poorly soluble in water”. The seizure reduction in data set [1] is on record as 25-80%.

With `CCCCCc1cc(O)c2c(c1)OC(C)(C)[C@@H]1CCC(C)=C[C@@H]21` [Dronabinol, (−)-trans-Δ^9-tetrahydrocannabinol], the “duration of appetite stimulant effect” value in data set [2] (after administration) is not below 24 h. Moreover, in data set [2] (after oral administration), the “duration of action for psychoactive effects” value was 4 to 6 h, the onset of action is 0.5 to 1 h and the peak effect is 2 to 4 h.
